Results reported in ChEMBL document CHEMBL5108027, “An unanticipated discovery of novel naphthalimidopropanediols as potential broad-spectrum antibacterial members” (Eur J Med Chem, 2022).
In brackets after ≈: the same amount, converted by molar mass.

How the values were obtained:
Type in all cases: functional
[1] = system: Staphylococcus aureus; experiment: Antibacterial activity against methicillin-resistant Staphylococcus aureus N315 measured by Muller-Hinton broth based microdilution assay
[2] = system: Enterococcus faecalis; experiment: Antibacterial activity against Enterococcus faecalis measured by Muller-Hinton broth based microdilution assay
[3] = system: Staphylococcus aureus; experiment: Antibacterial activity against Staphylococcus aureus measured by Muller-Hinton broth based microdilution assay
[4] = system: Staphylococcus aureus; experiment: Antibacterial activity against Staphylococcus aureus ATCC 25923 measured by Muller-Hinton broth based microdilution assay
[5] = system: Staphylococcus aureus; experiment: Antibacterial activity against Staphylococcus aureus ATCC 29213 measured by Muller-Hinton broth based microdilution assay
[6] = system: Klebsiella pneumoniae; experiment: Antibacterial activity against Klebsiella pneumoniae measured by Muller-Hinton broth based microdilution assay
[7] = system: Escherichia coli; experiment: Antibacterial activity against Escherichia coli measured by Muller-Hinton broth based microdilution assay
[8] = system: Pseudomonas aeruginosa; experiment: Antibacterial activity against Pseudomonas aeruginosa measured by Muller-Hinton broth based microdilution assay
[9] = system: Acinetobacter baumannii; experiment: Antibacterial activity against Acinetobacter baumannii measured by Muller-Hinton broth based microdilution assay
[10] = system: Pseudomonas aeruginosa; experiment: Antibacterial activity against Pseudomonas aeruginosa ATCC 27853 measured by Muller-Hinton broth based microdilution assay
[11] = system: Escherichia coli; experiment: Antibacterial activity against Escherichia coli ATCC 25922 measured by Muller-Hinton broth based microdilution assay

Work on `O=C1c2cccc3c(N/N=C/c4ccc(O)c(O)c4O)ccc(c23)C(=O)N1C(CO)CO` yielded an MIC [1] of 16 µg/mL (≈ 36.6 µM), an MIC [2] of 8 µg/mL (≈ 18.3 µM) and an MIC [3] of 4 µg/mL (≈ 9.14 µM). For the same compound, the MIC [4] was 32 µg/mL (≈ 73.2 µM), the MIC [5] was 64 µg/mL (≈ 146 µM) and the MIC [6] was 2 µg/mL (≈ 4.57 µM). The MIC [7] was 64 µg/mL (≈ 146 µM), the MIC [8] was 64 µg/mL (≈ 146 µM) and the MIC [9] was 16 µg/mL (≈ 36.6 µM). It also gave an MIC [10] of 4 µg/mL (≈ 9.14 µM) and an MIC [11] of 16 µg/mL (≈ 36.6 µM).

`O=C1c2cccc3c(N/N=C/c4nc5ccccc5[nH]4)ccc(c23)C(=O)N1C(CO)CO` was tested, and the MIC [1] was 64 µg/mL (≈ 149 µM), the MIC [2] was 64 µg/mL (≈ 149 µM) and the MIC [3] was 32 µg/mL (≈ 74.5 µM). It also gave an MIC [4] of 64 µg/mL (≈ 149 µM), an MIC [5] of 128 µg/mL (≈ 298 µM) and an MIC [6] of 32 µg/mL (≈ 74.5 µM). For the same compound, the MIC [7] was 8 µg/mL (≈ 18.6 µM), the MIC [8] was 16 µg/mL (≈ 37.3 µM) and the MIC [9] was 64 µg/mL (≈ 149 µM). It also gave an MIC [10] of 64 µg/mL (≈ 149 µM) and an MIC [11] of 32 µg/mL (≈ 74.5 µM).

For `O=C1c2cccc3c(N/N=C/c4ccncc4)ccc(c23)C(=O)N1C(CO)CO`, the MIC [1] was 64 µg/mL (≈ 164 µM), the MIC [2] was 64 µg/mL (≈ 164 µM) and the MIC [3] was 4 µg/mL (≈ 10.2 µM). For the same compound, the MIC [4] was 64 µg/mL (≈ 164 µM), the MIC [5] was 128 µg/mL (≈ 328 µM) and the MIC [6] was 64 µg/mL (≈ 164 µM). The MIC [7] was 32 µg/mL (≈ 82 µM), the MIC [8] was 2 µg/mL (≈ 5.12 µM) and the MIC [9] was 64 µg/mL (≈ 164 µM). It also gave an MIC [10] of 1 µg/mL (≈ 2.56 µM) and an MIC [11] of 64 µg/mL (≈ 164 µM).

Work on `O=C1c2cccc3c(N/N=C/c4cccc(O)c4)ccc(c23)C(=O)N1C(CO)CO` yielded an MIC [1] of 128 µg/mL (≈ 316 µM), an MIC [2] of 128 µg/mL (≈ 316 µM) and an MIC [3] of 256 µg/mL (≈ 631 µM). It also gave an MIC [4] of 32 µg/mL (≈ 78.9 µM), an MIC [5] of 256 µg/mL (≈ 631 µM) and an MIC [6] of 128 µg/mL (≈ 316 µM). For the same compound, the MIC [7] was 256 µg/mL (≈ 631 µM), the MIC [8] was 256 µg/mL (≈ 631 µM) and the MIC [9] was 256 µg/mL (≈ 631 µM). The MIC [10] was 256 µg/mL (≈ 631 µM) and the MIC [11] was 256 µg/mL (≈ 631 µM).

With `O=C1c2cccc3c(N/N=C/c4ccccc4O)ccc(c23)C(=O)N1C(CO)CO` the MIC [1] was 2 µg/mL (≈ 4.93 µM), the MIC [2] was 16 µg/mL (≈ 39.5 µM) and the MIC [3] was 16 µg/mL (≈ 39.5 µM). It also gave an MIC [4] of 32 µg/mL (≈ 78.9 µM), an MIC [5] of 16 µg/mL (≈ 39.5 µM) and an MIC [6] of 4 µg/mL (≈ 9.87 µM). For the same compound, the MIC [7] was 32 µg/mL (≈ 78.9 µM), the MIC [8] was 64 µg/mL (≈ 158 µM) and the MIC [9] was 64 µg/mL (≈ 158 µM). The MIC [10] was 64 µg/mL (≈ 158 µM) and the MIC [11] was 32 µg/mL (≈ 78.9 µM).

In the case of `O=C1c2cccc3c(N/N=C/c4csc5ccccc45)ccc(c23)C(=O)N1C(CO)CO`, the MIC [1] is reported as 64 µg/mL (≈ 144 µM), the MIC [2] is reported as 64 µg/mL (≈ 144 µM) and the MIC [3] is reported as 64 µg/mL (≈ 144 µM). The MIC [4] was 64 µg/mL (≈ 144 µM), the MIC [5] was 128 µg/mL (≈ 287 µM) and the MIC [6] was 32 µg/mL (≈ 71.8 µM). The MIC [7] was 32 µg/mL (≈ 71.8 µM), the MIC [8] was 64 µg/mL (≈ 144 µM) and the MIC [9] was 64 µg/mL (≈ 144 µM). The MIC [10] was 64 µg/mL (≈ 144 µM) and the MIC [11] was 64 µg/mL (≈ 144 µM).

Work on `O=C1c2cccc3c(N/N=C/c4ncc[nH]4)ccc(c23)C(=O)N1C(CO)CO` yielded an MIC [1] of 64 µg/mL (≈ 169 µM), an MIC [2] of 64 µg/mL (≈ 169 µM) and an MIC [3] of 32 µg/mL (≈ 84.3 µM). For the same compound, the MIC [4] was 64 µg/mL (≈ 169 µM), the MIC [5] was 128 µg/mL (≈ 337 µM) and the MIC [6] was 64 µg/mL (≈ 169 µM). It also gave an MIC [7] of 16 µg/mL (≈ 42.2 µM), an MIC [8] of 8 µg/mL (≈ 21.1 µM) and an MIC [9] of 64 µg/mL (≈ 169 µM). It also gave an MIC [10] of 4 µg/mL (≈ 10.5 µM) and an MIC [11] of 64 µg/mL (≈ 169 µM).

`O=C1c2cccc3c(N/N=C/c4nccs4)ccc(c23)C(=O)N1C(CO)CO` showed an MIC [1] of 32 µg/mL (≈ 80.7 µM), an MIC [2] of 32 µg/mL (≈ 80.7 µM) and an MIC [3] of 64 µg/mL (≈ 161 µM). For the same compound, the MIC [4] was 16 µg/mL (≈ 40.4 µM), the MIC [5] was 32 µg/mL (≈ 80.7 µM) and the MIC [6] was 64 µg/mL (≈ 161 µM). The MIC [7] was 32 µg/mL (≈ 80.7 µM), the MIC [8] was 32 µg/mL (≈ 80.7 µM) and the MIC [9] was 32 µg/mL (≈ 80.7 µM). It also gave an MIC [10] of 16 µg/mL (≈ 40.4 µM) and an MIC [11] of 32 µg/mL (≈ 80.7 µM).

Compound `O=C1c2cccc3c(N/N=C/c4ccc(F)cc4F)ccc(c23)C(=O)N1C(CO)CO` has an MIC [1] of 128 µg/mL (≈ 301 µM), an MIC [2] of 128 µg/mL (≈ 301 µM) and an MIC [3] of 256 µg/mL (≈ 602 µM). For the same compound, the MIC [4] was 32 µg/mL (≈ 75.2 µM), the MIC [5] was 16 µg/mL (≈ 37.6 µM) and the MIC [6] was 128 µg/mL (≈ 301 µM). For the same compound, the MIC [7] was 256 µg/mL (≈ 602 µM), the MIC [8] was 256 µg/mL (≈ 602 µM) and the MIC [9] was 256 µg/mL (≈ 602 µM). The MIC [10] was 256 µg/mL (≈ 602 µM) and the MIC [11] was 256 µg/mL (≈ 602 µM).

Compound `CCCCCCCCCCCCCCCCn1cc(/C=N/Nc2ccc3c4c(cccc24)C(=O)N(C(CO)CO)C3=O)c2ccccc21` has an MIC [1] of 64 µg/mL (≈ 98 µM), an MIC [2] of 64 µg/mL (≈ 98 µM) and an MIC [3] of 8 µg/mL (≈ 12.3 µM). It also gave an MIC [4] of 32 µg/mL (≈ 49 µM), an MIC [5] of 64 µg/mL (≈ 98 µM) and an MIC [6] of 32 µg/mL (≈ 49 µM). For the same compound, the MIC [7] was 32 µg/mL (≈ 49 µM), the MIC [8] was 64 µg/mL (≈ 98 µM) and the MIC [9] was 64 µg/mL (≈ 98 µM). For the same compound, the MIC [10] was 32 µg/mL (≈ 49 µM) and the MIC [11] was 64 µg/mL (≈ 98 µM).

With `O=C1c2cccc3c(N/N=C/c4ccc(O)c([N+](=O)[O-])c4)ccc(c23)C(=O)N1C(CO)CO` the MIC [1] was 64 µg/mL (≈ 142 µM), the MIC [2] was 16 µg/mL (≈ 35.5 µM) and the MIC [3] was 4 µg/mL (≈ 8.88 µM). The MIC [4] was 4 µg/mL (≈ 8.88 µM), the MIC [5] was 8 µg/mL (≈ 17.8 µM) and the MIC [6] was 4 µg/mL (≈ 8.88 µM). It also gave an MIC [7] of 32 µg/mL (≈ 71 µM), an MIC [8] of 32 µg/mL (≈ 71 µM) and an MIC [9] of 32 µg/mL (≈ 71 µM). For the same compound, the MIC [10] was 8 µg/mL (≈ 17.8 µM) and the MIC [11] was 32 µg/mL (≈ 71 µM).

`O=C1c2cccc(O)c2C(=O)c2c(O)cc(/C=N/Nc3ccc4c5c(cccc35)C(=O)N(C(CO)CO)C4=O)cc21` showed an MIC [1] of 64 µg/mL (≈ 116 µM), an MIC [2] of 64 µg/mL (≈ 116 µM) and an MIC [3] of 32 µg/mL (≈ 58 µM). It also gave an MIC [4] of 64 µg/mL (≈ 116 µM), an MIC [5] of 128 µg/mL (≈ 232 µM) and an MIC [6] of 32 µg/mL (≈ 58 µM). The MIC [7] was 8 µg/mL (≈ 14.5 µM), the MIC [8] was 16 µg/mL (≈ 29 µM) and the MIC [9] was 64 µg/mL (≈ 116 µM). It also gave an MIC [10] of 64 µg/mL (≈ 116 µM) and an MIC [11] of 32 µg/mL (≈ 58 µM).

Compound `O=C1c2cccc3c(N/N=C/c4ccc(O)c(Br)c4)ccc(c23)C(=O)N1C(CO)CO` has an MIC [1] of 8 µg/mL (≈ 16.5 µM), an MIC [2] of 4 µg/mL (≈ 8.26 µM) and an MIC [3] of 16 µg/mL (≈ 33 µM). For the same compound, the MIC [4] was 64 µg/mL (≈ 132 µM), the MIC [5] was 64 µg/mL (≈ 132 µM) and the MIC [6] was 16 µg/mL (≈ 33 µM). The MIC [7] was 64 µg/mL (≈ 132 µM), the MIC [8] was 64 µg/mL (≈ 132 µM) and the MIC [9] was 64 µg/mL (≈ 132 µM). For the same compound, the MIC [10] was 16 µg/mL (≈ 33 µM) and the MIC [11] was 32 µg/mL (≈ 66.1 µM).
